Measured values: patent US11130752B2, “Aminopyrimidine compound” (Cardurion Pharmaceuticals, LLC, priority 2018, dated 2021)

target: T1, human CaMKIIδ (Homo sapiens, UniProt Q13557); assay: In vitro CaMKII inhibitory activity (binding assay, TR-FRET); conditions: Table 1, GST-tagged human CaMKIIδ, activity ranks
T1 construct: Full-length, glutathione-S-transferase(GST)-tagged, human CaMKIIδ was purchased from Carna Biosciences; purchased Carna Biosciences (CaMKIIδ); Wako Pure Chemical Industries (calmodulin) 02-111
Experimental: Evaluation of In Vitro CaMKII Inhibitory Activity (Binding Assay)
In vitro CaMKIIδ inhibitory activity was evaluated by a binding assay.
Full-length, glutathione-S-transferase(GST)-tagged, human CaMKIIδ was purchased from Carna Biosciences (product #02-111, Kobe, Japan). Full-length bovine calmodulin was purchased from Wako Pure Chemical Industries (Osaka, Japan). Terbium-labeled anti-GST antibody (Tb-anti-GST Ab) was purchased from Life Technologies (Carlsbad, Calif., USA). Boron-dipyrromethene (BODIPY)-labeled probe ligand was synthesized as described below.
Time-Resolved Fluorescence Resonance Energy Transfer (TR-FRET) Assay
All assays were conducted using 384-well, white, flat-bottomed plates (product #784075, Greiner Bio-One, Frickenhausen, Germany) in kinase assay buffer, which consists of 50 mM HEPES pH 7.6, 10 mM MgCl2, 1 mM EGTA, 0.01% Brig-35, 0.1 mM DTT). The fluorescent probe ligand was added at a final concentration of 300 nM to solutions containing 0.21 nM Tb-anti-GST Ab, 1 mM CaCl2, 10 μg/mL calmodulin, and 0.5 nM GST-tagged CaMKIIδ. After shaded incubation of the protein-probe mixture on ice for 30 min, the premix was dispensed in the assay plate including test inhibitors with 4 fold dilution series of eight concentrations. After 1 hr incubation at room temperature, TR-FRET signals were measured in duplicate using an EnVision microplate reader (Perkin Elmer, Waltham, Mass., USA). The solution in each well was excited with a laser (λ=340 nm) reflected by a dichroic mirror (D400/D505 (Perkin Elmer) through an excitation filter (UV (TRF) 340, (Perkin Elmer)), and fluorescence from Tb and BODIPY were detected through two emission filters (CFP 495 (Perkin Elmer) for Tb, Emission 520 (Perkin Elmer) for BODIPY).
The percentage of inhibition of test compounds was calculated according to equation (1) Inhibition(%)=100×(μH−T)/(μH−μL) (1)
Where T is the value of the wells containing test compounds and μH and μL are the mean values of the 0% and 100% inhibition control wells, respectively. The values of the 0 and 100% controls were the signals obtained in the absence and presence of 3 μM its parent compound, respectively. The half maximal inhibitory concentration (IC50) of test compounds was calculated by fitting the data with the logistic equation using XLfit (IDBS, Guildford, UK). The IC50 was classified according to the following activity ranks.

SMILES | IC50 [nM]
C[C@@H](Cn1cnnn1)Oc1cc(-c2cnc(Nc3cn([C@H]4CC[C@H](N5CCOCC5)CC4)nc3OCCCOCC(F)F)nc2)ccc1Cl [Example 47, 5-(3-(((S)-1-(1H-tetrazol-1-yl)propan-2-yl)oxy)-4-chlorophenyl)-N-(3-(3-(2,2-difluoroethoxy)propoxy)-1-((1r,4r)-4-morpholinocyclohexyl)-1H-pyrazol-4-yl)pyrimidin-2-amine] | < 10
C[C@@H](Cn1cnnn1)Oc1cc(-c2cnc(Nc3cn([C@H]4CC[C@H](N5[C@@H]6CC[C@H]5COC6)CC4)nc3OCCO)nc2)ccc1C#N [Example 244, 2-(((S)-1-(1H-tetrazol-1-yl)propan-2-yl)oxy)-4-(2-((1-((1r,4r)-4-((1R,5S)-3-oxa-8-azabicyclo[3.2.1]octan-8-yl)cyclohexyl)-3-(2-hydroxyethoxy)-1H-pyrazol-4-yl)amino)pyrimidin-5-yl)benzonitrile] | < 10
COCCCCOc1nn([C@H]2CC[C@H](N3CCOCC3)CC2)cc1Nc1ncc(-c2ccc(C#N)c(O[C@@H](C)Cn3cnnn3)c2)cn1 [Example 150, 2-(((S)-1-(1H-tetrazol-1-yl)propan-2-yl)oxy)-4-(2-((3-(4-methoxybutoxy)-1-((1r,4r)-4-morpholinocyclohexyl)-1H-pyrazol-4-yl)amino)pyrimidin-5-yl)benzonitrile] | < 10
C[C@@H](Cn1cnnn1)Oc1cc(-c2cnc(Nc3cn([C@H]4CC[C@H](N5CCOCC5)CC4)nc3OCc3ccccn3)nc2)ccc1C#N [Example 129, 2-(((S)-1-(1H-tetrazol-1-yl)propan-2-yl)oxy)-4-(2-((1-((1r,4r)-4-morpholinocyclohexyl)-3-(pyridin-2-ylmethoxy)-1H-pyrazol-4-yl)amino)pyrimidin-5-yl)benzonitrile] | < 10
CCOCCCOc1nn([C@H]2CC[C@H](N3[C@@H]4CC[C@H]3COC4)CC2)cc1Nc1ncc(-c2ccc(Cl)c(O[C@@H](C)Cn3cnnn3)c2)cn1 [Example 242, 5-(3-(((S)-1-(1H-tetrazol-1-yl)propan-2-yl)oxy)-4-chlorophenyl)-N-(1-((1r,4r)-4-((1R,5S)-3-oxa-8-azabicyclo[3.2.1]octan-8-yl)cyclohexyl)-3-(3-ethoxypropoxy)-1H-pyrazol-4-yl)pyrimidin-2-amine] | < 10
CC(C)OCCOc1nn([C@H]2CC[C@H](N3CCOCC3)CC2)cc1Nc1ncc(-c2ccc(C#N)c(O[C@@H](C)Cn3cnnn3)c2)cn1 [Example 14, 2-(((S)-1-(1H-tetrazol-1-yl)propan-2-yl)oxy)-4-(2-((3-(2-isopropoxyethoxy)-1-((1r,4r)-4-morpholinocyclohexyl)-1H-pyrazol-4-yl)amino)pyrimidin-5-yl)benzonitrile] | < 10
COCCOc1nn([C@H]2CC[C@H](N3CCOCC3)CC2)cc1Nc1ncc(-c2ccc(C#N)c(O[C@@H](C)Cn3cnnn3)c2)cn1 [Example 1, 2-(((S)-1-(1H-tetrazol-1-yl)propan-2-yl)oxy)-4-(2-((3-(2-methoxyethoxy)-1-((1r,4r)-4-morpholinocyclohexyl)-1H-pyrazol-4-yl)amino)pyrimidin-5-yl)benzonitrile] | < 10

same assay, conditions: Table 4, GST-tagged human CaMKIIδ, activity ranks

SMILES | IC50 [nM]
C[C@@H]1CN([C@H]2CC[C@H](n3cc(Nc4ncc(-c5ccc(Cl)c(O[C@@H](C)Cn6cnnn6)c5)cn4)c(OCCCO)n3)CC2)C[C@H](C)O1 [Example 475, 3-((4-((5-(3-(((S)-1-(1H-tetrazol-1-yl)propan-2-yl)oxy)-4-chlorophenyl)pyrimidin-2-yl)amino)-1-((1r,4r)-4-((2S,6R)-2,6-dimethylmorpholino)cyclohexyl)-1H-pyrazol-3-yl)oxy)propan-1-ol] | < 10
C[C@@H](Cn1cnnn1)Oc1cc(-c2cnc(Nc3cn([C@H]4CC[C@H](N5CCOCC5)CC4)nc3OCCCC#N)nc2)ccc1C#N [Example 494, 2-(((S)-1-(1H-tetrazol-1-yl)propan-2-yl)oxy)-4-(2-((3-(3-cyanopropoxy)-1-((1r,4r)-4-morpholinocyclohexyl)-1H-pyrazol-4-yl)amino)pyrimidin-5-yl)benzonitrile] | < 10
C[C@@H]1CN([C@H]2CC[C@H](n3cc(Nc4ncc(-c5ccc(C#N)c(O[C@@H](C)Cn6cnnn6)c5)cn4)c(OCC4CCOCC4)n3)CC2)C[C@H](C)O1 [Example 483, 2-(((S)-1-(1H-tetrazol-1-yl)propan-2-yl)oxy)-4-(2-((1-((1r,4r)-4-((2S,6R)-2,6-dimethylmorpholino)cyclohexyl)-3-((tetrahydro-2H-pyran-4-yl)methoxy)-1H-pyrazol-4-yl)amino)pyrimidin-5-yl)benzonitrile] | < 10
C[C@@H]1CN([C@H]2CC[C@H](n3cc(Nc4ncc(-c5ccc(Cl)c(O[C@@H](C)Cn6cnnn6)c5)cn4)c(OCc4nncn4C)n3)CC2)C[C@H](C)O1 [Example 473, 5-(3-(((S)-1-(1H-tetrazol-1-yl)propan-2-yl)oxy)-4-chlorophenyl)-N-(1-((1r,4r)-4-((2S,6R)-2,6-dimethylmorpholino)cyclohexyl)-3-((4-methyl-4H-1,2,4-triazol-3-yl)methoxy)-1H-pyrazol-4-yl)pyrimidin-2-amine] | < 10
C[C@@H](Cn1cnnn1)Oc1cc(-c2cnc(Nc3cn([C@H]4CC[C@H](N5CCOCC5)CC4)nc3OCCn3ccnc3)nc2)ccc1Cl [Example 507, N-(3-(2-(1H-imidazol-1-yl)ethoxy)-1-((1r,4r)-4-morpholinocyclohexyl)-1H-pyrazol-4-yl)-5-(3-(((S)-1-(1H-tetrazol-1-yl)propan-2-yl)oxy)-4-chlorophenyl)pyrimidin-2-amine] | < 10
C[C@@H](Cn1cnnn1)Oc1cc(-c2cnc(Nc3cn([C@H]4CC[C@H](N5CCOCC5)CC4)nc3OCCc3cccnc3)nc2)ccc1Cl [Example 510, 5-(3-(((S)-1-(1H-tetrazol-1-yl)propan-2-yl)oxy)-4-chlorophenyl)-N-(1-((1r,4r)-4-morpholinocyclohexyl)-3-(2-(pyridin-3-yl)ethoxy)-1H-pyrazol-4-yl)pyrimidin-2-amine] | < 10
Cc1noc(C)c1COc1nn([C@H]2CC[C@H](N3CCOCC3)CC2)cc1Nc1ncc(-c2ccc(Cl)c(O[C@@H](C)Cn3cnnn3)c2)cn1 [Example 506, 5-(3-(((S)-1-(1H-tetrazol-1-yl)propan-2-yl)oxy)-4-chlorophenyl)-N-(3-((3,5-dimethylisoxazol-4-yl)methoxy)-1-((1r,4r)-4-morpholinocyclohexyl)-1H-pyrazol-4-yl)pyrimidin-2-amine] | < 10
C[C@@H]1CN([C@H]2CC[C@H](n3cc(Nc4ncc(-c5ccc(Cl)c(O[C@@H](C)Cn6cnnn6)c5)cn4)c(OC[C@@H](C)O)n3)CC2)C[C@H](C)O1 [Example 482, (R)-1-((4-((5-(3-(((S)-1-(1H-tetrazol-1-yl)propan-2-yl)oxy)-4-chlorophenyl)pyrimidin-2-yl)amino)-1-((1r,4r)-4-((2S,6R)-2,6-dimethylmorpholino)cyclohexyl)-1H-pyrazol-3-yl)oxy)propan-2-ol] | < 10
C[C@@H](Cn1cnnn1)Oc1cc(-c2cnc(Nc3cn([C@H]4CC[C@H](N5CCOCC5)CC4)nc3OCC3CCCOC3)nc2)ccc1Cl (stereo partly drawn) [Example 499, 5-(3-(((S)-1-(1H-tetrazol-1-yl)propan-2-yl)oxy)-4-chlorophenyl)-N-(1-((1r,4r)-4-morpholinocyclohexyl)-3-((tetrahydro-2H-pyran-3-yl)methoxy)-1H-pyrazol-4-yl)pyrimidin-2-amine] | < 10
C[C@@H](Cn1cnnn1)Oc1cc(-c2cnc(Nc3cn([C@H]4CC[C@H](N5CCOCC5)CC4)nc3OCc3ccnn3C)nc2)ccc1Cl [Example 502, 5-(3-(((S)-1-(1H-tetrazol-1-yl)propan-2-yl)oxy)-4-chlorophenyl)-N-(3-((1-methyl-1H-pyrazol-5-yl)methoxy)-1-((1r,4r)-4-morpholinocyclohexyl)-1H-pyrazol-4-yl)pyrimidin-2-amine] | < 10
COC(C)(C)CCOc1nn([C@H]2CC[C@H](N3C[C@@H](C)O[C@@H](C)C3)CC2)cc1Nc1ncc(-c2ccc(C#N)c(O[C@@H](C)Cn3cnnn3)c2)cn1 [Example 478, 2-(((S)-1-(1H-tetrazol-1-yl)propan-2-yl)oxy)-4-(2-((1-((1r,4r)-4-((2S,6R)-2,6-dimethylmorpholino)cyclohexyl)-3-(3-methoxy-3-methylbutoxy)-1H-pyrazol-4-yl)amino)pyrimidin-5-yl)benzonitrile] | < 10
